Holding throughout (format): physicochemical
A short description of data set [1]: CD (circular dichroism) spectroscopy of α-helix structure. Conditions: for [6]222/[θ]208 ratio: before magnetic field (CD), 20 μM in distilled water. Here is the method:
To evaluate the structures of a linear plasmid DNA and peptides, CD spectra were analyzed using a Chirascan CD spectrometer (Applied Photophysics, UK). […] The final concentration of the linear plasmid DNA was 30 ng/μL. All the samples were dissolved in H2O. For the formation of the artificial chromosome, a mixture of the peptide and the DNA was incubated for 12 days or longer. Scanning was performed using a 2-mm path-length cuvette. Each scan was repeated three times and averaged. MRE (mean residue ellipticity) was calculated based on the number of amino acid residues.
CD (circular dichroism) spectroscopy was performed as follows.
The CD spectra were analyzed using a Chirascan CD spectrometer (Applied Photophysics, UK). […] All the samples were dissolved in H2O. Each scan was repeated three times using a 2-mm path-length cuvette and averaged. MRE (mean residue ellipticity) was calculated based on the number of amino acid residues.
(In general: CD spectra are sensitive to the conformation of chiral molecules.)

Data set [2] in a line: NMR residual dipolar couplings (RDC) under magnetic field. The following applies: difference of 21.14 T and 16.45 T; 21 residues of α10; methanol-d3/chloroform-d. The protocol:
^1H NMR and ^2D ^1H-^15N IPAP-HSQC (in-phase/anti-phase heteronuclear single quantum coherence) NMR spectra were acquired at 298 K using a Bruker AVANCE IV 900 MHz spectrometer and a BrukerAVANCE Ill HD 700 MHz spectrometer, both equipped with cryogenic probes. The NMR sample of PEG30-α10-PEG30 was dissolved in methanol-d3/chloroform-d (1:1) containing 0.05% TFA at a concentration of 4.26 mM. The acquisition parameters of IPAP were 2048 t2×1024 t1 points, 8 scans, 0.2 second recycle delay, 14 ppm spectral width for ^1H and 26 ppm spectral width for ^15N. The acquired data were split into two data sets, IP and AP, using a TopSpin software (Bruker, Germany). […]
Anisotropic diamagnetic molecules placed in an isotropic solution are aligned when a magnetic field is applied. The behavior of the peptide according to the present disclosure under a magnetic field was analyzed. For this, RDCs (residual dipolar couplings) between ^1H-^15N amide pairs (^1DNH) were measured by NMR (nuclear magnetic resonance) at 16.45 T (700.400 MHz) and 21.14 T (900.230 MHz). […]
Specifically, ^1H NMR and ^2D ^1H-^15N IPAP-HSQC (in-phase/anti-phase heteronuclear single quantum coherence) NMR spectra were analyzed at 298 K using a BrukerAVANCE IV 900 MHz spectrometer and a BrukerAVANCE Ill HD 700 MHz spectrometer equipped with cryogenic probes. […] Peak positions were analyzed using the NMRFAM-SPARKY software.

Data set [3] can be described thus: MCD (magnetic circular dichroism) under 1.6 T magnetic field. Conditions: magnetic field of 1.6 T applied (MCD). Here is the method: MCD (magnetic circular dichroism) spectra were obtained using a Jasco-815 159-L spectrophotometer (Jasco, Japan). The concentration of the peptides was 20 μM in distilled water. Measurements were performed using a 2-mm path-length cuvette. The magnetic field of the permanent magnet in the MCD accessory (PM-491) was 1.6 T. Each scan was repeated three times and averaged.
MCD (magnetic circular dichroism) spectra were obtained using a Jasco-815 159-L spectrophotometer (Jasco, Japan). The concentration of the peptide complex was 20 μM in distilled water. Measurements were performed using a 2-mm path-length cuvette. The magnetic field of the permanent magnet in the MCD accessory (PM-491) was 1.6 T. Each scan was repeated three times and averaged.
MCD (magnetic circular dichroism) analysis was performed to investigate whether the helical stability of the αm peptide in the peptide complex according to the present disclosure is affected by the magnetic field. The peptide complexes of Examples 47 and 99 have partially stable α-helices. When a magnetic field of 1.6 T was applied to the peptide complexes of Examples 47 and 99 (FIGS. 44d, 44e), the contents of α-helices, i.e. the [θ]222/[6]208 ratios, were increased in both molecules. […]

Data set [4] can be described thus: AFM of self-assembly with or without magnetic field. Here is the method: AFM was performed using the NX10 system (Park Systems, Korea) in a non-contact mode with PPP-NCHR AFM probes (Nanosensors, Switzerland). The peptide complex (specimen) dispersed in an aqueous solvent was placed between neodymium magnets and measurements were compared before and after the application of a magnetic field. The magnetic field intensity was measured using a Model 450 gaussmeter (Lake Shore Cryotronics, USA).
It was confirmed that the peptide complex according to the present disclosure is highly sensitive to a magnetic field and the α-helix structure can be controlled with a magnetic field. It was also investigated whether the self-assembly process of the peptide complex is affected by a magnetic field. The peptide complexes of Examples 51 and 99 were dissolved in aqueous solvents to induce self-assembly. The aqueous solvents were sonicated to prevent aggregation for clear observation. The aqueous solvent was placed in the equipment shown in FIG. 44f and measured by AFM after incubation overnight. The AFM measurement was also made before the treatment for comparison before and after the application of the magnetic field.

Where [5] appears, read: Table 9, linear and cyclic αm-PEG10 peptide complexes, in H2O.
Setting [6] is: in the absence of the magnetic field.

For “(PEG10)3AUAUAUAUAUAUAUAUAUAUA(PEG10)3 [Example 128]”, the “[θ]222/[θ]208” value in data set [1] (Table 14, coil-rod-coil peptide complexes) was 1.15. The “average RDC value (1DNH, exp)” value in data set [2] was found to be 2.007 Hz.
As to WAUAUAUAUAU(PEG2)5 [Example 99], the “[θ]222/[θ]208” value in data set [1] (setting [5]) is given as 0.93; in data set [1] (Table 13, cyclic peptide complexes), 0.93. For the same substance, the “[6]222/[θ]208 ratio” value in data set [1] worked out at 0.89; in data set [3], 1.01. For the same substance, the self-assembled structure entry in data set [4] (setting [6]) was “vesicle-like spherical self-assembled structures”; in data set [4] (magnetic field (0.25 T) applied) it was “cruciform anisotropic nanostructures”.
In the case of WAUAUAUAUAU(PEG2)5 [Example 47], the “[θ]222/[θ]208” value in data set [1] (setting [5]) came out at 0.84. Also, in data set [1] (Table 11, peptide complexes of Examples 37-97), the “θ222 nm/θ208 nm ratio” value is 0.84. Besides, the entries for the “[6]222/[θ]208 ratio” value in data set [1] and in data set [3] were 0.86 and 0.91, respectively. Besides, the self-assembled structure entry is “highly uniform micelle-like spherical self-assembled structures” in data set [4] (setting [6]); “anisotropic and unique planar nanostructures” in data set [4] (magnetic field (0.07 T) applied).

Source of the values: patent US20240424134A1, “PEPTIDE HAVING INDEPENDENTLY STABILIZED HYDROPHOBIC ALPHA HELIX, PEPTIDE COMPLEX COMPRISING SAME AND USES THEREOF” (UIF (University Industry Foundation), Yonsei University, priority 2022, published 2024).
